Experimental data as given in US8021570B2, “β-peptide lyotropic liquid crystals and methods of manufacture and use thereof” (Wisconsin Alumni Research Foundation, priority 2006, dated 2011).
Values belong to the compound of their own block, whether it stands above or below them.

Tests used:
streptavidin = target: T1, streptavidin (Streptomyces avidinii, UniProt P22629); assay: Stability of streptavidin immobilized on gold slides after exposure to a liquid crystal (binding of fluorescently labeled biotin); conditions: 2 hrs incubation
T1 construct: purchased Pierce Biotechnology

[1] = Optical microscopy of aqueous β-peptide solutions between crossed polarizing filters (birefringence = LC phase formation); assay type: physicochemical; conditions: aqueous solution
Text: The inventors used optical microscopy for initial evaluation of aqueous solutions of 1-5. For each β-peptide, aqueous solutions of varying concentration were drawn into microcapillaries and examined between crossed polarizing filters at room temperature (FIGS. 1 and 3). In such experiments, the observation of birefringence is taken as evidence of LC phase formation. […] Increasing β-peptide length by one triad, to generate 3, led to LC behavior at lower concentrations, as shown by the image obtained for a 10 wt % sample (61 mM, FIG. 1C). […] Thus, self-assembly of the chiral helix formed by 3 induced a helical ordering of molecules in the LC phase whereas the two-turn, chiral helix formed by 2 was unable to induce this higher ordered phase.
β-Peptides were weighed into glass vials, diluted to the desired concentration with water, and left on an oscillatory shaker overnight to ensure dissolution. β-peptide solutions were then drawn into a 2 μL microcapillary (Drummond), and the ends were sealed with a high viscosity vacuum grease (Dow-Corning) Microcapillaries were placed on a glass slide and imaged on an Olympus BX-60 microscope (Tokyo, Japan) in transmission mode between crossed polarizing filters using a digital camera (Olympus C2020 Zoom). […] Temperature was recorded from a thermostat but was not further calibrated.
Materials and Methods • Materials. […] Solvent A and Solvent B for RP-HPLC were 0.1% trifluoroacetic acid (TFA) in Millipore water and 0.1% TFA in acetonitrile, respectively. β-peptide purity was assessed using a Vydac C18 analytical column using a flow rate of 1 mL/min from 10-60% B over 50 minutes monitoring at 220 and 273 nm. • MALDI-TOF-MS (matrix-assisted laser desorption-ionization-time-of-flight mass spectrometry) data were collected on a Bruker REFLEX II spectrometer with a 337 nm laser using α-cyano-4-hydroxycinnamic acid as matrix. […] To assess the upper limit of concentration, a 1 μL droplet of a concentrated peptide solution was allowed to slowly evaporate while being monitored for birefringence. […]

Compound: O=C([O-])c1cc(=O)c2c(OCC(O)COc3cccc4oc(C(=O)[O-])cc(=O)c34)cccc2o1.[Na+].[Na+] [disodium chromoglycate]
- state of immobilized streptavidin after incubation with the liquid crystal (streptavidin; 16 wt %): streptavidin is still able to bind biotin

Compound: CCCCCCCCCCOS(=O)(=O)[O-].[Na+] [sodium decyl sulfate]
- state of immobilized streptavidin after incubation with the liquid crystal (streptavidin; 32 wt %): the protein is denatured

- solubility limit [1]: > 10 wt %
Compound: NCCCC[C@@H](CC(N)=O)NC(=O)C[C@H](Cc1ccccc1)NC(=O)[C@H]1CCCC[C@@H]1NC(=O)C[C@H](CCCCN)NC(=O)C[C@H](Cc1ccccc1)NC(=O)[C@H]1CCCC[C@@H]1NC(=O)C[C@H](CCCCN)NC(=O)C[C@H](Cc1ccccc1)NC(=O)[C@H]1CCCC[C@@H]1NC(=O)C[C@@H](N)Cc1ccc(O)cc1 [β-peptide iso-A]

Compound: pentanoyl-NH-β^3hTyr-(ACHC-ACHC-β^3hLys)3 [pentanoyl-β^3hTyr-(ACHC-ACHC-β^3hLys)3]
- state of immobilized streptavidin after incubation with the liquid crystal (streptavidin; 1 wt %): streptavidin is still able to bind biotin

- type of LC phase suggested by optical texture ([1]; room temperature, 2 at 19 wt %, 3 at 10 wt %): nematic
Compound: β^3-hTyr-(ACHC-ACHC-β^3-hLys)2 [β-peptide 2]

- LC phase formation / birefringence (result in words) [1]: strong birefringence
Compound: β^3-hTyr-(ACHC-β^3-hPhe-β^3-hLys)3 scram
